Reference: Sander's compilation of Henry's law constants (doi:10.1213/00000539-199904000-00035)

Assay: Henry solubility constant Hcp at 310 K (mol/(m3 Pa))
Conditions: reference: Eger et al. (1999)

SMILES	Henry solubility constant Hcp at 310 K
CC(O)(C(F)(F)F)C(F)(F)F [1,1,1,3,3,3-hexafluoro-2-methyl-2-propanol]	0.018
OC(C(F)(F)F)C(F)(F)F [1,1,1,3,3,3-hexafluoro-2-propanol]	0.1
CC(O)C(F)(F)F (configuration not stated) [1,1,1-trifluoro-2-propanol]	0.13
CCCCCCO [1-hexanol]	0.35
CCCCCCCCO [1-octanol]	0.27
OCCC(F)(F)C(F)(F)C(F)(F)C(F)(F)C(F)(F)C(F)(F)F [1H,1H,2H,2H-perfluoro-1-octanol]	0.00094
OCC(F)(F)F [2,2,2-trifluoroethanol]	0.43
OCC(F)(F)C(F)(F)F [2,2,3,3,3-pentafluoro-1-propanol]	0.069
OCC(F)(F)C(F)(F)C(F)(F)C(F)(F)C(F)(F)F [2,2,3,3,4,4,5,5,6,6,6-undecafluoro-1-hexanol]	0.0017
OCC(F)(F)C(F)(F)C(F)(F)C(F)(F)C(F)(F)C(F)(F)F [2,2,3,3,4,4,5,5,6,6,7,7,7-tridecafluoro-1-heptanol]	0.0006
OCC(F)(F)C(F)(F)C(F)(F)C(F)(F)C(F)(F)C(F)(F)C(F)(F)F [2,2,3,3,4,4,5,5,6,6,7,7,8,8,8-pentadecafluoro-1-octanol]	0.00023
OCC(F)(F)C(F)(F)C(F)(F)C(F)(F)C(F)(F)C(F)F [2,2,3,3,4,4,5,5,6,6,7,7-dodecafluoro-1-heptanol]	0.064
OCC(F)(F)C(F)(F)C(F)(F)C(F)F [2,2,3,3,4,4,5,5-octafluoro-1-pentanol]	0.25
OCC(F)(F)C(F)F [2,2,3,3-tetrafluoro-1-propanol]	0.75
OCC(F)(F)C(F)C(F)(F)F (configuration not stated) [2,2,3,4,4,4-hexafluoro-1-butanol]	0.32
CC(O)C(F)(F)C(F)(F)C(F)(F)F (configuration not stated) [3,3,4,4,5,5,5-heptafluoro-2-pentanol]	0.009
CCO [ethanol]	1
